Reference: patent US20180016593A1, “HERBICIDE-RESISTANT SUNFLOWER PLANTS, POLYNUCLEOTIDES ENCODING HERBICIDE-RESISTANT ACETOHYDROXYACID SYNTHASE LARGE SUBUNIT PROTEINS, AND METHODS OF USE” (priority 2005, published 2018)
“And” between values parts separate entries of the source, which are not always exact repeats. Equal entries are not always repeated. Where two headings read alike, the source gives them in different places.

Experiments:
[1] = system: sunflower TH10 (Restorer Line, A205V); format: in vivo, Helianthus annuus; details: 14 DAT
Method: (§1) A greenhouse study was conducted to quantify and contrast the imazapir sensivity of the mutants A122T and A205V in different genetic backgrounds at the whole plant level in sunflower. Seeds of the different sunflower lines that were used in this study were obtained under field conditions.
(§2) Seeds were sown in Petri dishes and, after germination, plantlets were transplanted to pots of 10 cm of diameter in a potting media consisting of equal parts of vermiculite, soil and sand. Plants were grown in a greenhouse under natural light conditions supplemented with 400 W sodium halide lamps to provide a 16 hrs daylength. Day/night temperatures were 25 and 20° C., respectively. At the V2 stage 10 plants of each genotype were randomly assigned to each treatment consisting of […] imazapir doses (0, 40, 80, 160, 240, 320, 400 and 480 g ai/ha), and a zero-time biomass determination. Experiment was arranged as a randomized block design with a full factorial (sunflower line×treatment) arrangement of treatments and 10 replications.
(§3) On the day of herbicide application ten plants of each genotype were cut at the cotyledonal node and dried at 60° C. for 48 hrs zero-time for dried weight determination.
(§4) Height was determined as the distance between the cotyledonal node and the apex of each plant. For root biomass determination, each plant was taken from the pot and the potting media was washed out from the roots. Above ground biomass data from each line were converted to biomass accumulation after application by subtracting the appropriate average zero-time biomass from each sample. Dry biomass data were converted to percentages of the untreated control plants within each line to allow direct comparisons between groups. […]

[2] = system: sunflower lines carrying the A205V mutation; format: in vivo, Helianthus annuus; details: 14 DAT; for biomass accumulation, Dif with Control / plant height, Dif with Control / root dry weight, Dif with Control: A205V mean; for biomass accumulation, Mean / root dry weight, Mean / plant height, Mean: six A205V genotypes
Method: as §1, §2, §3, §4

Structure (SMILES): CC(C)C1(C)N=C(c2ncccc2C(=O)O)NC1=O (stereo not shown) [imazapyr]
- Phytotoxicity Index ([1]; 0.5x (40 g ai/ha)): 0
- biomass accumulation (above ground dry weight) ([1]; 0.5x (40 g ai/ha)): 99.2 % of untreated plots
- plant height ([1]; 0.5x (40 g ai/ha)): 99.2 % of untreated plots
- root dry weight ([1]; 0.5x (40 g ai/ha)): 90.3 % of untreated plots
- Phytotoxicity Index ([1]; 1x (80 g ai/ha)): 0
- biomass accumulation (above ground dry weight) ([1]; 1x (80 g ai/ha)): 85.0 % of untreated plots
- plant height ([1]; 1x (80 g ai/ha)): 98.1 % of untreated plots
- root dry weight ([1]; 1x (80 g ai/ha)): 69.9 % of untreated plots
- Phytotoxicity Index ([1]; 2x (160 g ai/ha)): 3.1
- biomass accumulation (above ground dry weight) ([1]; 2x (160 g ai/ha)): 58.1 % of untreated plots
- plant height ([1]; 2x (160 g ai/ha)): 63.6 % of untreated plots
- root dry weight ([1]; 2x (160 g ai/ha)): 41.3 % of untreated plots
- Phytotoxicity Index ([1]; 3x (240 g ai/ha)): 3.9
- biomass accumulation (above ground dry weight) ([1]; 3x (240 g ai/ha)): 48.1 % of untreated plots
- plant height ([1]; 3x (240 g ai/ha)): 51.9 % of untreated plots
- root dry weight ([1]; 3x (240 g ai/ha)): 42.8 % of untreated plots
- Phytotoxicity Index ([1]; 4x (320 g ai/ha)): 5.9
- biomass accumulation (above ground dry weight) ([1]; 4x (320 g ai/ha)): 28.8 % of untreated plots
- plant height ([1]; 4x (320 g ai/ha)): 27.5 % of untreated plots
- root dry weight ([1]; 4x (320 g ai/ha)): 22.3 % of untreated plots
- Phytotoxicity Index ([1]; 5x (400 g ai/ha)): 6.9
- biomass accumulation (above ground dry weight) ([1]; 5x (400 g ai/ha)): 27.4 % of untreated plots
- plant height ([1]; 5x (400 g ai/ha)): 26.0 % of untreated plots
- root dry weight ([1]; 5x (400 g ai/ha)): 22.7 % of untreated plots
- Phytotoxicity Index ([1]; 6x (480 g ai/ha)): 6.7
- biomass accumulation (above ground dry weight) ([1]; 6x (480 g ai/ha)): 24.9 % of untreated plots
- plant height ([1]; 6x (480 g ai/ha)): 29.3 % of untreated plots
- root dry weight ([1]; 6x (480 g ai/ha)): 16.4 % of untreated plots
- biomass accumulation, Dif with Control ([2]; 0.5x (40 g ai/ha)): 5.5 % of untreated plots
- plant height, Dif with Control ([2]; 0.5x (40 g ai/ha)): 5.6 % of untreated plots
- root dry weight, Dif with Control ([2]; 0.5x (40 g ai/ha)): 12.8 % of untreated plots
- biomass accumulation, Dif with Control ([2]; 1x (80 g ai/ha)): 17.8 % of untreated plots
- plant height, Dif with Control ([2]; 1x (80 g ai/ha)): 10.8 % of untreated plots
- root dry weight, Dif with Control ([2]; 1x (80 g ai/ha)): 29.2 % of untreated plots
- biomass accumulation, Dif with Control ([2]; 2x (160 g ai/ha)): 38.4 % of untreated plots
- plant height, Dif with Control ([2]; 2x (160 g ai/ha)): 30.8 % of untreated plots
- root dry weight, Dif with Control ([2]; 2x (160 g ai/ha)): 49.4 % of untreated plots
- biomass accumulation, Dif with Control ([2]; 3x (240 g ai/ha)): 52.4 % of untreated plots
- plant height, Dif with Control ([2]; 3x (240 g ai/ha)): 49.6 % of untreated plots
- root dry weight, Dif with Control ([2]; 3x (240 g ai/ha)): 60.8 % of untreated plots
- biomass accumulation, Dif with Control ([2]; 4x (320 g ai/ha)): 64.6 % of untreated plots
- plant height, Dif with Control ([2]; 4x (320 g ai/ha)): 66.3 % of untreated plots
- root dry weight, Dif with Control ([2]; 4x (320 g ai/ha)): 68.9 % of untreated plots
- biomass accumulation, Dif with Control ([2]; 5x (400 g ai/ha)): 67.6 % of untreated plots
- plant height, Dif with Control ([2]; 5x (400 g ai/ha)): 68.0 % of untreated plots
- root dry weight, Dif with Control ([2]; 5x (400 g ai/ha)): 69.3 % of untreated plots
- biomass accumulation, Dif with Control ([2]; 6x (480 g ai/ha)): 70.0 % of untreated plots
- root dry weight, Dif with Control ([2]; 6x (480 g ai/ha)): 75.6 % of untreated plots
- plant height, Dif with Control ([2]; 6x (480 g ai/ha), listed as imazapir): 68.9 % of untreated plots and 69.8 % of untreated plots
- biomass accumulation, Mean ([2]; 0.5x (40 g ai/ha)): 94.5 % of untreated plots
- root dry weight, Mean ([2]; 0.5x (40 g ai/ha)): 87.2 % of untreated plots
- biomass accumulation, Mean ([2]; 1x (80 g ai/ha)): 82.2 % of untreated plots
- root dry weight, Mean ([2]; 1x (80 g ai/ha)): 70.8 % of untreated plots
- biomass accumulation, Mean ([2]; 2x (160 g ai/ha)): 61.6 % of untreated plots
- plant height, Mean ([2]; 2x (160 g ai/ha)): 69.2 % of untreated plots
- root dry weight, Mean ([2]; 2x (160 g ai/ha)): 50.6 % of untreated plots
- biomass accumulation, Mean ([2]; 3x (240 g ai/ha)): 47.6 % of untreated plots
- plant height, Mean ([2]; 3x (240 g ai/ha)): 50.4 % of untreated plots
- root dry weight, Mean ([2]; 3x (240 g ai/ha)): 39.2 % of untreated plots
- biomass accumulation, Mean ([2]; 4x (320 g ai/ha)): 35.4 % of untreated plots
- plant height, Mean ([2]; 4x (320 g ai/ha)): 33.7 % of untreated plots
- root dry weight, Mean ([2]; 4x (320 g ai/ha)): 31.1 % of untreated plots
- biomass accumulation, Mean ([2]; 5x (400 g ai/ha)): 32.4 % of untreated plots
- plant height, Mean ([2]; 5x (400 g ai/ha)): 32.0 % of untreated plots
